Broadly, the residual activity is the signal under treatment as a percentage of the control signal.

This is an account of results in paper PMC6458995, “MAP4K4 Inhibition Promotes Survival of Human Stem Cell-Derived Cardiomyocytes and Reduces Infarct Size In Vivo” (Cell Stem Cell, 2019).

Molecules are shown by their SMILES.

What all share (assay): Dundee kinase panel
Holding throughout (assay type): biochemical
Common to all, as to settings: for remaining activity at 1 µM: read-out: residual activity

Assay [1] has as its target T1, MLK1 (Homo sapiens, UniProt P80192).
T1 construct: lines 1-140) and Reaction Biology
The protocol: (§1) Compounds were screened at 1 μM. For key hits, pIC50 values were then determined by HTRF as above. […] Stability in mouse and human liver microsomes was determined by Cyprotex.

Assay [2] concerns the target T2, NEK2a (Homo sapiens, UniProt P51955).
T2 construct: lines 1-140) and Reaction Biology
T2 sequence (P51955 1-445): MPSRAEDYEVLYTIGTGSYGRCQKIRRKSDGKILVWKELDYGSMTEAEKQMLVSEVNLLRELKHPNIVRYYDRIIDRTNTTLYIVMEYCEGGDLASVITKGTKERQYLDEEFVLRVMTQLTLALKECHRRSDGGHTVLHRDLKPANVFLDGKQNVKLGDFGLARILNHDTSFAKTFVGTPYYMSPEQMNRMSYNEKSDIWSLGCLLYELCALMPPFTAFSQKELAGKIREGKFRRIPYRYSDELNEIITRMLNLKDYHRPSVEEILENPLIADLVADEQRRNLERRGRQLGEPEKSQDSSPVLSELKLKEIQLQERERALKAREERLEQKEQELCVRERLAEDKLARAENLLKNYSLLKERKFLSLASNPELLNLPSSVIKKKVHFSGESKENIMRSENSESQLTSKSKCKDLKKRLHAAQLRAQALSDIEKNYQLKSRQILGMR
The protocol:
as §1

For assay [3], the target named is T3, ZAP70 (Homo sapiens, UniProt P43403).
T3 construct: lines 1-140) and Reaction Biology
T3 sequence (P43403 1-619): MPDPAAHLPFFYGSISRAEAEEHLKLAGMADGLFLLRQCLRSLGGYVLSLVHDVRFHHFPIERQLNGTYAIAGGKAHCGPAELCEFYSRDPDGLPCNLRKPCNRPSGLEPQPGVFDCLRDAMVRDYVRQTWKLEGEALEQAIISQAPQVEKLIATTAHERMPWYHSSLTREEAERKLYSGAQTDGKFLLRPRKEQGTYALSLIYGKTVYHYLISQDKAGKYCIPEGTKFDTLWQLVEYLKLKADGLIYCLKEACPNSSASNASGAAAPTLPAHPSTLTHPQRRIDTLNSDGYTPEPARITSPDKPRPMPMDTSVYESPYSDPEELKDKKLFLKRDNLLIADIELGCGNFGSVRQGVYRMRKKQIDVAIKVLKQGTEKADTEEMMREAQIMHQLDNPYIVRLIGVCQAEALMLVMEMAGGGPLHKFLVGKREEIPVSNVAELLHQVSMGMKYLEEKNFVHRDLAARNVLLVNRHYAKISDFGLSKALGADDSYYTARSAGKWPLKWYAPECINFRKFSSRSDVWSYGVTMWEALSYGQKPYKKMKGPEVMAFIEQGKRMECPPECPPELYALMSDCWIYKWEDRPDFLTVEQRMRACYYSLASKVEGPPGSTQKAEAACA
The protocol:
as §1

Assay [4] concerns the target T4, MSK1 (Homo sapiens, UniProt O75582).
T4 construct: lines 1-140) and Reaction Biology
The protocol: as §1

Assay [5] concerns the target T5, PIM3 (Homo sapiens, UniProt Q86V86).
T5 construct: lines 1-140) and Reaction Biology
The protocol:
as §1

Assay [6] addresses T6, SIK2 (Homo sapiens, UniProt Q9H0K1).
T6 construct: lines 1-140) and Reaction Biology
The protocol:
as §1

Assay [7] deals with T7, TAO1 (Homo sapiens, UniProt Q7L7X3).
T7 construct: lines 1-140) and Reaction Biology
T7 sequence (Q7L7X3 1-1001): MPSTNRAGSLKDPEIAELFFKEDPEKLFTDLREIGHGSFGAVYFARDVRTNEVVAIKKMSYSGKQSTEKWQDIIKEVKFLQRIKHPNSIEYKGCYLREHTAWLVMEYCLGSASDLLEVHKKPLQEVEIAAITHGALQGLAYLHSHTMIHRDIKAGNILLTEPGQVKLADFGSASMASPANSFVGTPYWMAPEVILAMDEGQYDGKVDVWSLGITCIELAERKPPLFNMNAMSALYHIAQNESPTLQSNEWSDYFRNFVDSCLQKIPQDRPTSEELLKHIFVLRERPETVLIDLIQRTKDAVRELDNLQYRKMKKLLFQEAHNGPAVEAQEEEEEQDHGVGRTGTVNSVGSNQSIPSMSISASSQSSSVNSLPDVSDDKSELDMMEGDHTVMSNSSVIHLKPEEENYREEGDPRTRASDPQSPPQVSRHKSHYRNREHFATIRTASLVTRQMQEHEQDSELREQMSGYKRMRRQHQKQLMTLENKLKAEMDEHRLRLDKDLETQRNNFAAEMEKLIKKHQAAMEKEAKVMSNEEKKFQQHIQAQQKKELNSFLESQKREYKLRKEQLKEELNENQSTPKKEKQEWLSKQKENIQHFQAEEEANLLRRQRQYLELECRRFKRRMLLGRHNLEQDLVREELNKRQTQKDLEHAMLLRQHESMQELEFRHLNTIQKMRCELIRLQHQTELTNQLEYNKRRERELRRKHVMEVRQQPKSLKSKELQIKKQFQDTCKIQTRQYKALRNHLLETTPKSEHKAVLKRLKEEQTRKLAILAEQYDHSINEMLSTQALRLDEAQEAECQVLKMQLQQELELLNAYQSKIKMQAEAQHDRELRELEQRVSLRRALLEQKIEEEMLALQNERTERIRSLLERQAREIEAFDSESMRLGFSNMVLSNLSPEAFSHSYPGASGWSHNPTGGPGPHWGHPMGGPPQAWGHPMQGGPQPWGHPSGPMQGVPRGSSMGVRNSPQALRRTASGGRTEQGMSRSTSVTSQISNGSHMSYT
The protocol: as §1

In assay [8] the target is T8, TIE2 (Homo sapiens, UniProt Q02763).
T8 construct: lines 1-140) and Reaction Biology
T8 sequence (Q02763 23-1124): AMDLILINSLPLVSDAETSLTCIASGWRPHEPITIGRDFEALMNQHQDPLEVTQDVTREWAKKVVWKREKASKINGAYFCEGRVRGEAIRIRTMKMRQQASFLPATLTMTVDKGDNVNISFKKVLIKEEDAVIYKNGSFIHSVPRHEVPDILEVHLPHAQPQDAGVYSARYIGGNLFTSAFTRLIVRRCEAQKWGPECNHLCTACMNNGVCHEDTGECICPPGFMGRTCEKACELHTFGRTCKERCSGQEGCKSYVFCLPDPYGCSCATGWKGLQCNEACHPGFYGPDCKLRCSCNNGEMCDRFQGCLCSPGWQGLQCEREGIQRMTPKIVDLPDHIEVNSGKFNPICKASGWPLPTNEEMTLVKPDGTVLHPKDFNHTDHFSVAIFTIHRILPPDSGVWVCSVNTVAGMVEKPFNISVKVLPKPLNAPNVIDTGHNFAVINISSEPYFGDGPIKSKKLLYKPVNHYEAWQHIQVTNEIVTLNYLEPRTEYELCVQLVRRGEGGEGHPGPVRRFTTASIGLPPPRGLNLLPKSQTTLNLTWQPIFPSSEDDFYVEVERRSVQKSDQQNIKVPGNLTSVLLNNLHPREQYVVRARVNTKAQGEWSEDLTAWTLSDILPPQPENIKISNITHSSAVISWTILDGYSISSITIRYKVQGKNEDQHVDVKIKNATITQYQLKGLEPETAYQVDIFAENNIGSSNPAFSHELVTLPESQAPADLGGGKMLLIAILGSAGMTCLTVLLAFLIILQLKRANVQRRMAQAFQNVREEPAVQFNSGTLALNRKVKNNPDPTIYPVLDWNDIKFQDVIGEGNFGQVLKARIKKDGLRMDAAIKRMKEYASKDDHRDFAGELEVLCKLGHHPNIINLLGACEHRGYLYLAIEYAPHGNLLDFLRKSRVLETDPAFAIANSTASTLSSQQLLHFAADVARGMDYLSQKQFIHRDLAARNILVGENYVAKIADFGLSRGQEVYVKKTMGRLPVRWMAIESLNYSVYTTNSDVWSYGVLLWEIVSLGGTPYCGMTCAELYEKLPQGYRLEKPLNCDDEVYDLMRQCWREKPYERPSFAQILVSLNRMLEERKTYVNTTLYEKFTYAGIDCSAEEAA
The protocol: as §1

T6 sequence (Q9H0K1 whole entry): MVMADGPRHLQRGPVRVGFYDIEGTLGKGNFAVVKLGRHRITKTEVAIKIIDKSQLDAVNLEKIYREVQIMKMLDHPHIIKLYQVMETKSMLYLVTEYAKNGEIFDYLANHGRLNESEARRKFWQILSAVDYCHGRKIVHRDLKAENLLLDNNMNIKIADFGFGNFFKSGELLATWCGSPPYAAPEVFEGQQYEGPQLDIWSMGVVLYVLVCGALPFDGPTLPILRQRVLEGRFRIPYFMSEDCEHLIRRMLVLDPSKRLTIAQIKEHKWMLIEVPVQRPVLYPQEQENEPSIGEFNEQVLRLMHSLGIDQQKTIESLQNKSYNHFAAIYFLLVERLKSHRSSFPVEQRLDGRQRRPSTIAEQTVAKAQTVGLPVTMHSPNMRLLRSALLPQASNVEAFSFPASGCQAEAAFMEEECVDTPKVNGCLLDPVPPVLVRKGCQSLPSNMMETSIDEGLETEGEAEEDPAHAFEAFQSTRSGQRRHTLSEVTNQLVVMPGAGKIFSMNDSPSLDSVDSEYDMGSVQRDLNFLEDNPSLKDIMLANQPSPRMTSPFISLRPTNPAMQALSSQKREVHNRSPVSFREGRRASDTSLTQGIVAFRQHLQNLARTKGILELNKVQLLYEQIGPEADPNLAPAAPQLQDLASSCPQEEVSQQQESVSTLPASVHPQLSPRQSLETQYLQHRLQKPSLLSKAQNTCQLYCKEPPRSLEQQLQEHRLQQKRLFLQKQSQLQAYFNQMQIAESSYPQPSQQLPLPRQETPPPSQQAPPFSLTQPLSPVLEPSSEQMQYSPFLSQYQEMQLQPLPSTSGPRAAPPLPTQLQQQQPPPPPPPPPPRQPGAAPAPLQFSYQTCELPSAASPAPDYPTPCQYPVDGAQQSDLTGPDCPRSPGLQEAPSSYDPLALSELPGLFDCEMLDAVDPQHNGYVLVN
T1 sequence (P80192 whole entry): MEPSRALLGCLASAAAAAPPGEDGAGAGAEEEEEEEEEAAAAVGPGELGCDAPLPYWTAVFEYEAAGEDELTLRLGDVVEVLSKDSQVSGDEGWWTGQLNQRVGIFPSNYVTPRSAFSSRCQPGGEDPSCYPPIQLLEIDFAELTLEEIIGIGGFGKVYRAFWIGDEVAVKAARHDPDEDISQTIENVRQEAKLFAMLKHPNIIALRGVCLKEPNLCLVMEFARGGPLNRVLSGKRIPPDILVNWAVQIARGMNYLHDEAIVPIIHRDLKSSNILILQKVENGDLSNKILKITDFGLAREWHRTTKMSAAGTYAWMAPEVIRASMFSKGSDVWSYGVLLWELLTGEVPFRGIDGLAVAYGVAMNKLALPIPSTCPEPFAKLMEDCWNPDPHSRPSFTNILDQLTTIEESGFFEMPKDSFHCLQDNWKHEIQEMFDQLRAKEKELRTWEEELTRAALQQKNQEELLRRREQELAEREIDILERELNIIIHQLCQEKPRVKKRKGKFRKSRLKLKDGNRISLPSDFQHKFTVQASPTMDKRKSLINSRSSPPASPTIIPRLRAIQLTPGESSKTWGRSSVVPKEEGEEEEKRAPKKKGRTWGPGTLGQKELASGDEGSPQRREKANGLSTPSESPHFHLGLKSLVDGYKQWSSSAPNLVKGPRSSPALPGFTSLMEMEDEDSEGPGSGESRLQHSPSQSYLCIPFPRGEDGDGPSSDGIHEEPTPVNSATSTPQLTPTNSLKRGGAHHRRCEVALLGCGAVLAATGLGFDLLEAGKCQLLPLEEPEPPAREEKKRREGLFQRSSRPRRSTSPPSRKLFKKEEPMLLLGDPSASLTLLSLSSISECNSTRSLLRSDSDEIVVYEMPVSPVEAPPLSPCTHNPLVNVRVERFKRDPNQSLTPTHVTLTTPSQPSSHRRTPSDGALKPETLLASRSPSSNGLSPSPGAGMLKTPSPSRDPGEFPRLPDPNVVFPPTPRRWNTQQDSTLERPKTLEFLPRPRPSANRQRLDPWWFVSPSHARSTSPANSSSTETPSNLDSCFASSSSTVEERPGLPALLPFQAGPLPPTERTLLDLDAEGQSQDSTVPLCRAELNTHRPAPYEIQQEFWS
T4 sequence (O75582 whole entry): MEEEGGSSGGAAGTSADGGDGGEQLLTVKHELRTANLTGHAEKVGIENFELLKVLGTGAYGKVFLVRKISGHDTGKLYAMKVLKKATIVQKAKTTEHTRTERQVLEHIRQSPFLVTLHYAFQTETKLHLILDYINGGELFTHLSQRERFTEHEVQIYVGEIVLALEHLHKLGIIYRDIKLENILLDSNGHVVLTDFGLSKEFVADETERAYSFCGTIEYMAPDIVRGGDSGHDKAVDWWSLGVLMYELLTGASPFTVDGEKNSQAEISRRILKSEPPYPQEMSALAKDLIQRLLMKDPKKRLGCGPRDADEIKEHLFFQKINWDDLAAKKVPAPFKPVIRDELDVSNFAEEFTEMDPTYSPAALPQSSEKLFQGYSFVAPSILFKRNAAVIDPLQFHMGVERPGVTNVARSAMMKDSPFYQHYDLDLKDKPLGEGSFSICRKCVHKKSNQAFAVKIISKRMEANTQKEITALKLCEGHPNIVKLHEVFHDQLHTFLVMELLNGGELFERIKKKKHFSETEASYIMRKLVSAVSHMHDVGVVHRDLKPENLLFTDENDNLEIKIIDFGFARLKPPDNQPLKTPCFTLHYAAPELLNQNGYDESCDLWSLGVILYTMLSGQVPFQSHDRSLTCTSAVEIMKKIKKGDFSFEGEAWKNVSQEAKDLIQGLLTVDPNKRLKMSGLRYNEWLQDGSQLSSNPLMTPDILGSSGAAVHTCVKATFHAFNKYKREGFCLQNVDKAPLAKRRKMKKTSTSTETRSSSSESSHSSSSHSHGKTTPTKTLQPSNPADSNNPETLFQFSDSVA

`Oc1ncnc2c1c(-c1ccccc1)cn2-c1ccccc1` [F1386-0303, 5,7-diphenyl-7H-pyrrolo[2,3-d]pyrimidin-4-ol]: the remaining activity at 1 µM in assay [1] stood at 43%; in assay [2], 108%; in assay [3], 114%; in assay [4], 102%; in assay [5], 74%; in assay [6], 99%. For the same compound, the remaining activity at 1 µM in assay [7] was determined as 98%; in assay [8], 114%.

On to `O=C1Cc2c([nH]c3ccc(Br)cc23)-c2ccccc2N1` [Kenpaullone], for which the remaining activity at 1 µM in assay [1] is 99%; in assay [2], 89%; in assay [3], 59%; in assay [4] it was 90%; in assay [5], 103%; in assay [6], 13%. The remaining activity at 1 µM in assay [7] was 93%; in assay [8], 98%.

As to `COCCOc1ccc(-c2cn(-c3ccccc3)c3nc[nH]c(=O)c23)cc1` [DMX-5804, 5-[4-(2-methoxy-ethoxy)-phenyl]-7-phenyl-3,7-dihydro-pyrrolo[2,3-d]pyrimidin-4-one], the remaining activity at 1 µM in assay [1] is 9%; in assay [2] it was 106%; in assay [3], 94%; in assay [4], 121%; in assay [5], 88%; in assay [6] it was 90%. Also, the remaining activity at 1 µM in assay [7] was determined as 120%; in assay [8] it was 101%.

Take `O=C1Nc2ccc(I)cc2/C1=C/c1cc(Br)c(O)c(Br)c1` [GW5074]: the remaining activity at 1 µM worked out at 85% in assay [1]; 8% in assay [2]; 98% in assay [3]; 74% in assay [4]; 6% in assay [5]; 24% in assay [6]. In addition, the remaining activity at 1 µM came to 96% in assay [7] and 98% in assay [8].

Consider `Nc1ncc(C(=O)NC2CN(C(=O)C3CC3)C2)c2ccc(-c3cccc(F)c3)nc12` [GNE-495], for which the residual activity was determined as 25% in assay [1] (1 μM); 85% in assay [2] (1 μM); 109% in assay [3] (1 μM); 69% in assay [4] (1 μM); 87% in assay [5] (1 μM); 102% in assay [6] (1 μM). Further, the values for the residual activity in assay [7] (1 μM) and in assay [8] (1 μM) were 75% and 86%, respectively.
